Where a name gives a salt, the structure may show the parent alone. Read-outs that look alike come from different tables or passages of the source.
What was measured:
Assay type in all cases: biochemical
[1] = target: phosphorylated p-38-alpha kinase (Homo sapiens, UniProt Q16539); assay: P-38 alpha kinase assay P1 (coupled spectrophotometric, 2 h pre-incubation)
B-Raf(V599E) kinase = B-Raf(V599E) kinase (Homo sapiens, UniProt P15056, V600E); assay: B-Raf(V599E) kinase assay B1 (construct 1, MEK1 substrate, coupled spectrophotometric)
Chain of B-Raf(V599E) kinase (P15056 with tags, fused parts or gaps V600E): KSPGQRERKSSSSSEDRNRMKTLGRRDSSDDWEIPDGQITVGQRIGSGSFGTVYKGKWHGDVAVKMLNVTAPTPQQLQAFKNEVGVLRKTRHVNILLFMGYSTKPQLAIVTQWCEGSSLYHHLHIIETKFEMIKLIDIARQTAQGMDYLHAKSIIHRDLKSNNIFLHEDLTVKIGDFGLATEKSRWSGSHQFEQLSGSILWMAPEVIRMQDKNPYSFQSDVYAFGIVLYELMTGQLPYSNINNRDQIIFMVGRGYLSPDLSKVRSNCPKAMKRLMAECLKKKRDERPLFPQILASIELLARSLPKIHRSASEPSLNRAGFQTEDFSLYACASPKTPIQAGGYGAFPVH
Protocol: The test compounds were incubated with the reaction mixtureat 30° C. for 2 h. […] The reaction rate was calculated using the […] time frame. […] IC50 values were calculated from a series of percent inhibition values determined at a range of inhibitor concentrations using software routines as implemented in the GraphPad Prism software package.

Abl kinase = target: T1, Abl kinase (Homo sapiens, UniProt P00519); assay: Abl kinase assay A2 (as A1, 1.1 nM enzyme, 2 h pre-incubation, 0.5 mM ATP)
T1 sequence (P00519 229-512): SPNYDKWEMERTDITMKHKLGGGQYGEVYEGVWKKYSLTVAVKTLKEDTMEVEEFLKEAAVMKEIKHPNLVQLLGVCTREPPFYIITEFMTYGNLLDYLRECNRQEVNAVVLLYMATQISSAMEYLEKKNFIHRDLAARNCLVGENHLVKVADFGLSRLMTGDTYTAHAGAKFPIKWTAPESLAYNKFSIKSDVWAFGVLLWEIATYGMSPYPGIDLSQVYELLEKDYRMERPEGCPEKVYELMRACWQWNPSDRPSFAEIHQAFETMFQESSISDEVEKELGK
Protocol: (§1) IC50 values were calculated from a series of percent inhibition values determined at a range of inhibitor concentrations using software routines as implemented in the GraphPad Prism software package.

KDR kinase [2] = target: T2, KDR kinase (Homo sapiens, UniProt P35968, DEL940-989/E990V); assay: KDR kinase assay K2 (as K1, 2.1 nM enzyme, 2 h pre-incubation, 1.0 mM ATP)
T2 sequence (P35968 with tags, fused parts or gaps DEL940-989/E990V): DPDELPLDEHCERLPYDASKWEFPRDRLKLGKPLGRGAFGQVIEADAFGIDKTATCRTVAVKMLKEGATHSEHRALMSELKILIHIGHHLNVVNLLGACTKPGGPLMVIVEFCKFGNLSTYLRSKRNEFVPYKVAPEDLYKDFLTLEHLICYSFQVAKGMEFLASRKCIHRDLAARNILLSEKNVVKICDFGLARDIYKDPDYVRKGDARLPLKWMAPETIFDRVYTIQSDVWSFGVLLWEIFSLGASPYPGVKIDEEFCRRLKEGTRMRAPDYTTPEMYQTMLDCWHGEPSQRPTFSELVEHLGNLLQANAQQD
Protocol: as §1

KDR kinase [3] = target: T2, KDR kinase; assay: KDR kinase assay K1 (pyruvate kinase/lactate dehydrogenase coupled, spectrophotometric); details: Method K1; read-out: KDR Data (IC50)
Protocol: as §1

[4] = method P1 (2 h pre-incubation), read-out: P-38 Data
[5] = Method A2, read-out: Abl Data (IC50)
[6] = Method K2, read-out: KDR Data (IC50)

Chain of phosphorylated p-38-alpha kinase (Q16539 1-360 isoform Q16539-2): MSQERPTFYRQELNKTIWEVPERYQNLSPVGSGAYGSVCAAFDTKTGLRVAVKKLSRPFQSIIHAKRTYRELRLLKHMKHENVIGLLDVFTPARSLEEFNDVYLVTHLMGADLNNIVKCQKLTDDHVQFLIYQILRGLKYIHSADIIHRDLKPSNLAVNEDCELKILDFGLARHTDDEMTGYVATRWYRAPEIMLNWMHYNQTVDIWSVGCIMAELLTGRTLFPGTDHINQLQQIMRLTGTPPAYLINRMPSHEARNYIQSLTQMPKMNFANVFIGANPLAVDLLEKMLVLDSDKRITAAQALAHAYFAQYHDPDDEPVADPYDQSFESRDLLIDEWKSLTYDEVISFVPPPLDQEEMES

| SMILES | IC50 [1, 4] [nM] | IC50 (B-Raf(V599E) kinase) [nM] | IC50 (Abl kinase; [5]) [nM] | other results |
| --- | --- | --- | --- | --- |
| CC(C)(C)c1cc(NC(=O)Nc2cccc(Oc3cccnc3)c2)n(-c2cc(CO)c3ccccc3c2)n1 [Example 67, 1-(3-t-butyl-1-(4-(hydroxymethyl)naphthalen-2-yl)-1H-pyrazol-5-yl)-3-(3-(pyridin-3-yloxy)phenyl)urea] | 35 | 4.8 | 1 |  |
| CC(C)(C)c1cc(NC(=O)Nc2cccc(Oc3cccnc3)c2)n(-c2cc(CN)c3ccccc3c2)n1 [Example 72, 1-(1-(4-(aminomethyl)naphthalen-2-yl)-3-t-butyl-1H-pyrazol-5-yl)-3-(3-(pyridin-3-yloxy)phenyl)urea] |  | 4.4 | 2 | IC50 (KDR kinase [2]; [6]): 8.5 nM |
| CC(C)(C)c1cc(NC(=O)Nc2cc(F)c(F)cc2F)n(-c2cc(CC(=O)NCC(O)CO)c3ccccc3c2)n1 (stereo not drawn) [Example 94, 1-(3-t-butyl-1-(4-(2-(2,3-dihydroxypropyl-amino)-2-oxoethyl)naphthalen-2-yl)-1H-pyrazol-5-yl)-3-(2,4,5-trifluorophenyl)urea] | 68 | 4.8 | 130 |  |
| CC(C)(C)c1cc(NC(=O)Nc2cccc(Oc3cccnc3)c2)n(-c2ccc3[nH]ccc3c2)n1 [Example 116, 1-(3-t-butyl-1-(1H-indol-5-yl)-1H-pyrazol-5-yl)-3-(3-(pyridin-3-yloxy)phenyl)urea] |  | 5.9 | 6.6 | IC50 (KDR kinase [2]; [6]): 5 nM |
| CC(C)(C)c1cc(NC(=O)Nc2cccc(Oc3cccnc3)c2)n(-c2ccc3c(c2)CCN3)n1 [Example 119, 1-(3-t-butyl-1-(indolin-5-yl)-1H-pyrazol-5-yl)-3-(3-(pyridin-3-yloxy)phenyl)urea] | 60 | 9.1 | 12 | IC50 (KDR kinase [3]): 18 nM |
| CC(C)(C)c1cc(NC(=O)Nc2cccc(Cl)c2Cl)n(-c2ccc3c(c2)CNCC3)n1 [Example 123, 1-[3-t-butyl-1-(1,2,3,4-tetrahydroisoquinolin-7-yl)-1H-pyrazol-5-yl]-3-(2,3-dichloro-phenyl)urea] |  | 4.9 | 290 | IC50 (KDR kinase [3]): 190 nM |
| Cn1c(=O)c(-c2cccc(NC(=O)Nc3cc(C(C)(C)C)nn3-c3ccc4c(c3)CCC(=O)N4)c2)cc2cncnc21 [Example 132, 1-(3-t-butyl-1-(2-oxo-1,2,3,4-tetrahydroquinolin-6-yl)-1H-pyrazol-5-yl)-3-(3-(8-methyl-7-oxo-7,8-dihydropyrido[2,3-d]pyrimidin-6-yl)phenyl)urea] | 59 | 4.8 | 13 |  |
| CC(C)(C)c1cc(NC(=O)Nc2cccc(Cl)c2Cl)n(-c2ccc3c(c2)CCNC3)n1 [Example 138, 1-(3-t-butyl-1-(1,2,3,4-tetrahydroisoquinolin-6-yl)-1H-pyrazol-5-yl)-3-(2,3-dichlorophenyl)urea] | 140 | 3.2 | 100 | IC50 (KDR kinase [3]): 300 nM |
| CC(C)(C)c1cc(NC(=O)Nc2ccc(-c3cccc4c3CNC4=O)cc2)n(-c2ccc3c(c2)CCNC3)n1 [Example 151, 1-(3-t-butyl-1-(1,2,3,4-tetrahydroisoquinolin-6-yl)-1H-pyrazol-5-yl)-3-(4-(1-oxoisoindolin-4-yl)phenyl)urea hydrochloride] |  |  |  | IC50 (KDR kinase [2]): 3.5 nM; IC50 (Abl kinase): 8 nM |
| Cc1ccc(NC(=O)Nc2cc(C(C)(C)C)nn2-c2ccc3c(c2)CCNC3)cc1Nc1nccc(-c2cccnc2)n1 [Example 153, 1-(3-t-butyl-1-(1,2,3,4-tetrahydroisoquinolin-6-yl)-1H-pyrazol-5-yl)-3-(4-methyl-3-(4-(pyridin-3-yl)pyrimidin-2-ylamino)phenyl)urea dihydrochloride] |  | 27 |  | IC50 (Abl kinase): 1.2 nM |
| CC(C)(C)c1cc(NC(=O)Nc2cccc(Oc3cccnc3)c2)n(-c2ccc3[nH]c(=O)ccc3c2)n1 [Example 156, 1-(3-t-butyl-1-(2-oxo-1,2-dihydroquinolin-6-yl)-1H-pyrazol-5-yl)-3-(3-(pyridin-3-yloxy)phenyl)urea] |  | 4.1 | 5 | IC50 (KDR kinase [2]; [6]): 3.2 nM |
| CNC(=O)c1cc(Oc2ccc(NC(=O)Nc3cc(C(C)(C)C)nn3-c3ccc4[nH]c(=O)ccc4c3)cc2)ccn1 [Example 159, 1-(3-t-butyl-1-(2-oxo-1,2-dihydroquinolin-6-yl)-1H-pyrazol-5-yl)-3-(4-(2-(methylcarbamoyl)pyridin-4-yloxy)phenyl)urea] | 72 | 14 | 2.3 |  |
| Cn1c(=O)c(-c2cccc(NC(=O)Nc3cc(C4CCCC4)nn3-c3ccc4[nH]c(=O)ccc4c3)c2)cc2cncnc21 [Example 162, 1-(3-cyclopentyl-1-(2-oxo-1,2-dihydroquinolin-6-yl)-1H-pyrazol-5-yl)-3-(3-(8-methyl-7-oxo-7,8-dihydropyrido[2,3-d]pyrimidin-6-yl)phenyl)urea] |  | 6.7 | 80 |  |
| CNC(=O)c1cc(Oc2ccc(NC(=O)Nc3cc(C4CCCC4)nn3-c3ccc4[nH]c(=O)ccc4c3)cc2)ccn1 [Example 163, 1-(3-cyclopentyl-1-(2-oxo-1,2-dihydroquinolin-6-yl)-1H-pyrazol-5-yl)-3-(4-(2-(methylcarbamoyl)pyridin-4-yloxy)phenyl)urea] |  | 18 | 6.3 |  |
| CC(C)(C)c1cc(NC(=O)Nc2cccc(Cl)c2Cl)n(-c2ccc3nc(N4CCNCC4)ccc3c2)n1 [Example 168, 1-(3-t-butyl-1-(2-(piperazin-1-yl)quinolin-6-yl)-1H-pyrazol-5-yl)-3-(2,3-dichlorophenyl)urea] |  | 30 | 1100 |  |
| CNC(=O)c1cc(Oc2ccc(NC(=O)Nc3cc(C(C)(C)C)nn3-c3ccc4nc(N5CCNCC5)ccc4c3)cc2)ccn1 [Example 170, 1-(3-t-butyl-1-(2-(piperazin-1-yl)quinolin-6-yl)-1H-pyrazol-5-yl)-3-(4-(2-(methylcarbamoyl)pyridin-4-yloxy)phenyl)urea] |  | 40 | 1.8 |  |
| CNC(=O)c1cc(Oc2ccc(NC(=O)Nc3cc(C(C)(C)C)nn3-c3ccc4nc(NCCN)ccc4c3)cc2)ccn1 [Example 172, 1-(1-(2-(2-aminoethylamino)quinolin-6-yl)-3-t-butyl-1H-pyrazol-5-yl)-3-(4-(2-(methylcarbamoyl)pyridin-4-yloxy)phenyl)urea] |  | 29 | 1.9 |  |
| CNC(=O)c1cc(Oc2ccc(NC(=O)Nc3cc(C(C)(C)C)nn3-c3ccc4nc(N5CC[C@@H](N(C)C)C5)ccc4c3)cc2)ccn1 [Example 173, 1-(3-t-butyl-1-(2-((R)-3-(dimethylamino)pyrrolidin-1-yl)quinolin-6-yl)-1H-pyrazol-5-yl)-3-(4-(2-(methylcarbamoyl)pyridin-4-yloxy)phenyl)urea] |  | 63 | 4.2 |  |
| CNC(=O)c1cc(Oc2ccc(NC(=O)Nc3cc(C(C)(C)C)nn3-c3ccc4nc(N(C)C)ccc4c3)cc2)ccn1 [Example 175, 1-(3-t-butyl-1-(2-(dimethylamino)quinolin-6-yl)-1H-pyrazol-5-yl)-3-(4-(2-(methylcarbamoyl)pyridin-4-yloxy)phenyl)urea] | 160 | 30 | 1.5 |  |
| Cn1c(=O)c(-c2cccc(NC(=O)Nc3cc(C(C)(C)C)nn3-c3ccc4c(c3)CC(C(N)=O)NC4)c2)cc2cncnc21 (stereo not drawn) [Example 185, 1-(3-t-butyl-1-(3-carbamoyl-1,2,3,4-tetrahydroisoquinolin-6-yl)-1H-pyrazol-5-yl)-3-(3-(8-methyl-7-oxo-7,8-dihydropyrido[2,3-d]pyrimidin-6-yl)phenyl)urea dihydrochloride] |  | 6.9 |  | IC50 [1]: 23 nM; IC50 (Abl kinase): 2.7 nM |
